Series [1] in a line: Hydrolytic stability assay at pH 2. It counts as physicochemical. The note with it: buffer pH 2, 37° C., compounds of the invention. How it is done: The hydrolytic stability assay investigates the stability of a compound in an aqueous buffer system. Standard solution stability assay is run in 0.05 M Phosphate buffer at pH 7.4 (pH of blood plasma) at 37° C. As compounds in the GI tract are exposed to a wide variety of pHs any relevant pH (as pH 2 to simulate the acidic condition of the GI tract in the following experiment) can be chosen. Compounds are incubated in relevant solution at 37° C. and analyzed by HPLC immediately after incubation and after 1, 2 and 24 hrs. Degradation rate (decay in %) is calculated by relating peak areas after 1, 2 and 24 hrs to the time zero injection.
Compound is available as 10 mM in DMSO (solution 1). 2.5 μL of solution 1 is dissolved in 1 mL acetonitrile leading to solution 2. Poorly soluble compounds may demand another dilution step of solution 2 (1:5 and 1:10 respectively) in Acetonitrile). Solution 2 is incubated at 37° C. in a tempered HPLC autosampler. 1 mL buffer pH 2 is transferred into an HPLC vial. 100 μL of solution 2 is added to the buffer pH 2 solution and mixed thoroughly. Immediately after mixing the combined solution is injected into the HPLC to give the time zero injection. Injections are repeated after 1, 2 and 24 hrs.
The degradation rate (decay in %) is calculated using HPLC software Millennium and Excel respectively.

Series [2] concerns the target T1, Mps-1 kinase (Homo sapiens, UniProt P33981).
T1 sequence (P33981 1-857): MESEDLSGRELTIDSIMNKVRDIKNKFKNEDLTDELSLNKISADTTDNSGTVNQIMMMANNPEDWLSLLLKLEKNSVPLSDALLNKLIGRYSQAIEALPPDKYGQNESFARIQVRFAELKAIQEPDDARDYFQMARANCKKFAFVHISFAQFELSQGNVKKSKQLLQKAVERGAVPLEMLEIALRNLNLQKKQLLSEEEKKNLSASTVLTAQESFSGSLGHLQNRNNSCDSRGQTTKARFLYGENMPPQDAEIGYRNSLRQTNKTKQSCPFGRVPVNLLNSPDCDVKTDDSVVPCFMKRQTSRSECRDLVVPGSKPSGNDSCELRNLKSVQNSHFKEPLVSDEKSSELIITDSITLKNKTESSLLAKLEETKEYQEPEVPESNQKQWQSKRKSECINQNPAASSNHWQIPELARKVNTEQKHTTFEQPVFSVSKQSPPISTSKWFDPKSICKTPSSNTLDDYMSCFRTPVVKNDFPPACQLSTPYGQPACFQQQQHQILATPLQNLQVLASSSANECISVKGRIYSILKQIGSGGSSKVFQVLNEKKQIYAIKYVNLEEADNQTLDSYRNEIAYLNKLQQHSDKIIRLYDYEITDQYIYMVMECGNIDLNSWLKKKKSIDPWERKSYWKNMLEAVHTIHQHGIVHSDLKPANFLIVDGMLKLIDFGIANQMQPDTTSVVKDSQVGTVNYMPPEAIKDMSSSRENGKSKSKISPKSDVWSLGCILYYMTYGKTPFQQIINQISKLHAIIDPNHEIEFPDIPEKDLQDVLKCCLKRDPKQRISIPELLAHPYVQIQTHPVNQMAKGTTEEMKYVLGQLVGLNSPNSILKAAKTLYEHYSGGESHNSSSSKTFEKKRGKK
Put plainly: Mps-1 kinase assay with 2 mM ATP (TR-FRET). (In general: TR-FRET usually uses a lanthanide donor and a delayed reading to cut background.)

Series [3] addresses T1, Mps-1 kinase. Put plainly: Mps-1 kinase assay with 10 μM ATP (TR-FRET).

Each structure is given as a SMILES string.

Results on 17 compounds are retold here after patent US20140120087A1, “TRIAZOLOPYRIDINES” (BAYER INTELLECTUAL PROPERTY GMBH, priority 2011, published 2014).

The term IC50 denotes the concentration at which inhibition is half-maximal. Low values mean higher potency, high ones lower potency. On to `COc1cc(C(=O)N(C)CCN(C)C(C)=O)ccc1Nc1nc2ccc(-c3ccc(C(=O)NCc4ccc(F)cc4)cc3)cn2n1` [Example 02.9, N-{2-[acetyl(methyl)amino]ethyl}-4-[(6-{4-[(4-fluorobenzyl)carbamoyl]-phenyl}[1,2,4]triazolo[1,5-α]pyridin-2-yl)amino]-3-methoxy-N-methylbenzamide], for which the “Hydrolysis at pH 2; Decay in % after 24 h” value (from here on “Hydrolysis … in % after 24 h”) in series [1] is recorded as less than 10%. The IC50 was 2.2 nM on Mps-1 kinase [2] and no more than 1 nM on Mps-1 kinase [3].

For the compound `O=C(Cc1ccc(F)cc1)Nc1ccc(-c2ccc3nc(Nc4ccc(C(=O)NCC(F)(F)F)cc4OCC(F)(F)F)nn3c2)cc1` [Example 01.27, 4-{[6-(4-{[(4-fluorophenyl)acetyl]amino}phenyl)[1,2,4]triazolo[1,5-α]-pyridin-2-yl]amino}-3-(2,2,2-trifluoroethoxy)-N-(2,2,2-trifluoroethyl)-benzamide], the “Hydrolysis … in % after 24 h” value in series [1] is given as less than 10%. The IC50 against Mps-1 kinase [2] and on Mps-1 kinase [3] was no more than 1 nM in each case.

Turning to `CCNC(=O)c1ccc(Nc2nc3ccc(-c4ccc(C(=O)NCc5ccc(F)cc5)cc4)cn3n2)c(OC)c1` [Example 02.20, N-ethyl-4-[(6-{4-[(4-fluorobenzyl)carbamoyl]phenyl}[1,2,4]triazolo[1,5-α]-pyridin-2-yl)amino]-3-methoxybenzamide], the “Hydrolysis … in % after 24 h” value in series [1] is less than 10%. In addition, the IC50 against Mps-1 kinase [2] was 1.7 nM; at Mps-1 kinase [3], no more than 1 nM.

As for `COc1cc(C#N)ccc1Nc1nc2ccc(-c3ccc(NC(=O)Cc4ccc(F)cc4)cc3)cn2n1` [Example 01.2, N-(4-{2-[(4-cyano-2-methoxyphenyl)amino][1,2,4]triazolo[1,5-α]pyridin-6-yl}phenyl)-2-(4-fluorophenyl)acetamide], the “Hydrolysis … in % after 24 h” value in series [1] is reported as less than 10%. Moreover, the results for the IC50 against Mps-1 kinase [2] and on Mps-1 kinase [3] were 4.1 nM and no more than 1 nM, respectively.

As for `CC(C)(O)CNC(=O)c1ccc(Nc2nc3ccc(-c4ccc(C(=O)NCc5ccc(F)cc5)cc4)cn3n2)c(OCC(F)(F)F)c1` [Example 02.22, 4-[(6-{4-[(4-fluorobenzyl)carbamoyl]phenyl}[1,2,4]triazolo[1,5-α]pyridin-2-yl)amino]-N-(2-hydroxy-2-methylpropyl)-3-(2,2,2-trifluoroethoxy)benzamide], the “Hydrolysis … in % after 24 h” value in series [1] was less than 10%. The IC50 against Mps-1 kinase [2] and at Mps-1 kinase [3] was no more than 1 nM throughout.

For `CCNC(=O)c1ccc(Nc2nc3ccc(-c4ccc(NC(=O)Cc5ccc(F)cc5)cc4)cn3n2)c(OC)c1` [Example 01.4, N-ethyl-4-{[6-(4-{[(4-fluorophenyl)acetyl]amino}phenyl)[1,2,4]triazolo[1,5-α]pyridin-2-yl]amino}-3-methoxybenzamide], the “Hydrolysis … in % after 24 h” value in series [1] is recorded as less than 10%. Moreover, the IC50 at Mps-1 kinase [2] and on Mps-1 kinase [3] was no more than 1 nM throughout.

As for `CCOc1cc(C(=O)NCCS(C)(=O)=O)ccc1Nc1nc2ccc(-c3ccc(NC(=O)Cc4ccc(F)cc4)cc3)cn2n1` [Example 01.28, 3-ethoxy-4-{[6-(4-{[(4-fluorophenyl)acetyl]amino}phenyl)[1,2,4]triazolo-[1,5-α]pyridin-2-yl]amino}-N-[2-(methylsulfonyl)ethyl]benzamide], the “Hydrolysis … in % after 24 h” value in series [1] was less than 10%. The IC50 against Mps-1 kinase [2] and against Mps-1 kinase [3] was no more than 1 nM in each case.

Turning to `COc1cc(C(=O)N(C)CCN(C)C(C)=O)ccc1Nc1nc2ccc(-c3ccc(NC(=O)Cc4ccc(F)cc4)cc3)cn2n1` [Example 01.14, N-{2-[acetyl(methyl)amino]ethyl}-4-{[6-(4-{[(4-fluorophenyl)acetyl]amino}-phenyl)[1,2,4]triazolo[1,5-α]pyridin-2-yl]amino}-3-methoxy-N-methylbenzamide], the “Hydrolysis … in % after 24 h” value in series [1] is less than 10%. The IC50 at Mps-1 kinase [2] and at Mps-1 kinase [3] was no more than 1 nM throughout.

On to `CCN(CC)C(=O)c1ccc(Nc2nc3ccc(-c4ccc(NC(=O)Cc5ccc(F)cc5)cc4)cn3n2)c(OC)c1` [Example 01.1, N,N-diethyl-4-{[6-(4-{[(4-fluorophenyl)acetyl]amino}phenyl)[1,2,4]-triazolo[1,5-α]pyridin-2-yl]amino}-3-methoxybenzamide], for which, in series [1], the “Hydrolysis … in % after 24 h” value was less than 10%. The IC50 at Mps-1 kinase [2] is 1.2 nM; against Mps-1 kinase [3], no more than 1 nM.

In the case of `COc1cc(C(=O)NCC(C)(C)O)ccc1Nc1nc2ccc(-c3ccc(C(=O)NCc4ccc(F)cc4)cc3)cn2n1` [Example 02.5, 4-[(6-{4-[(4-fluorobenzyl)carbamoyl]phenyl}[1,2,4]triazolo[1,5-α]pyridin-2-yl)amino]-N-(2-hydroxy-2-methylpropyl)-3-methoxybenzamide], in series [1], the “Hydrolysis … in % after 24 h” value is recorded as less than 10%. Moreover, the values for the IC50 on Mps-1 kinase [2] and against Mps-1 kinase [3] were 1.8 nM and no more than 1 nM, respectively.

Consider `CCOc1cc(F)ccc1Nc1nc2ccc(-c3ccc(NC(=O)Cc4ccc(F)cc4)cc3)cn2n1` [Example 01.3, N-(4-{2-[(2-ethoxy-4-fluorophenyl)amino][1,2,4]triazolo[1,5-α]pyridin-6-yl}phenyl)-2-(4-fluorophenyl)acetamide], for which the “Hydrolysis … in % after 24 h” value in series [1] was less than 10%. The IC50 at Mps-1 kinase [2] was 1.1 nM; against Mps-1 kinase [3] it was no more than 1 nM.

As for `CCNC(=O)c1ccc(Nc2nc3ccc(-c4ccc(C(=O)NCc5cccc(F)c5)cc4)cn3n2)c(OC)c1` [Example 07.1, N-ethyl-4-[(6-{4-[(3-fluorobenzyl)carbamoyl]phenyl}[1,2,4]triazolo[1,5-α]-pyridin-2-yl)amino]-3-methoxybenzamide], in series [1], the “Hydrolysis … in % after 24 h” value is given as less than 10%. Further, the values for the IC50 on Mps-1 kinase [2] and at Mps-1 kinase [3] were 14 nM and no more than 1 nM, respectively.

With `CCOc1cc(C(=O)NCC(C)(C)O)ccc1Nc1nc2ccc(-c3ccc(NC(=O)Cc4ccc(F)cc4)cc3)cn2n1` [Example 01.17, 3-ethoxy-4-{[6-(4-{[(4-fluorophenyl)acetyl]amino}phenyl)[1,2,4]triazolo-[1,5-α]pyridin-2-yl]amino}-N-(2-hydroxy-2-methylpropyl)benzamide], the “Hydrolysis … in % after 24 h” value in series [1] is listed as less than 10%. In addition, the IC50 against Mps-1 kinase [2] and against Mps-1 kinase [3] was no more than 1 nM each time.

Consider `CCOc1cc(C(=O)NCCS(C)(=O)=O)ccc1Nc1nc2ccc(-c3ccc(C(=O)NCc4ccc(F)cc4)cc3)cn2n1` [Example 02.19, 3-ethoxy-4-[(6-{4-[(4-fluorobenzyl)carbamoyl]phenyl}[1,2,4]triazolo[1,5-α]pyridin-2-yl)amino]-N-[2-(methylsulfonyl)ethyl]benzamide], for which, in series [1], the “Hydrolysis … in % after 24 h” value is listed as less than 10%. Moreover, the IC50 at Mps-1 kinase [2] and on Mps-1 kinase [3] was no more than 1 nM each time.

Regarding `COc1ccc(Nc2nc3ccc(-c4ccc(C(=O)NCc5ccc(F)cc5)cc4)cn3n2)c(OC)c1` [Example 02.16, 4-{2-[(2,4-dimethoxyphenyl)amino][1,2,4]triazolo[1,5-α]pyridin-6-yl}-N-(4-fluorobenzyl)benzamide], in series [1], the “Hydrolysis … in % after 24 h” value was less than 10%. Besides, the IC50 on Mps-1 kinase [2] was 3.8 nM; against Mps-1 kinase [3], no more than 1 nM.

With `COc1cc(C(=O)NC(C)(C)CO)ccc1Nc1nc2ccc(-c3ccc(C(=O)NCc4ccc(F)cc4)c(OC)c3)cn2n1` [Example 08.1, N-(4-fluorobenzyl)-4-[2-({4-[(1-hydroxy-2-methylpropan-2-yl)carbamoyl]-2-methoxyphenyl}amino)[1,2,4]triazolo[1,5-α]pyridin-6-yl]-2-methoxybenz-amide], the “Hydrolysis … in % after 24 h” value in series [1] is less than 10%. Besides, the IC50 was 4.3 nM at Mps-1 kinase [2] and no more than 1 nM at Mps-1 kinase [3].

`O=C(NCc1ccc(F)cc1)c1ccc(-c2ccc3nc(Nc4ccc(C(=O)NCC(F)(F)F)cc4OCC(F)(F)F)nn3c2)cc1` [Example 02.23, 4-[(6-{4-[(4-fluorobenzyl)carbamoyl]phenyl}[1,2,4]triazolo[1,5-α]pyridin-2-yl)amino]-3-(2,2,2-trifluoroethoxy)-N-(2,2,2-trifluoroethyl)benzamide]: the “Hydrolysis … in % after 24 h” value in series [1] is less than 10%. The IC50 at Mps-1 kinase [2] and on Mps-1 kinase [3] was no more than 1 nM each time.
